Legend:
[1] = system: recombinant tobacco line P-6-1 (progeny) leaf discs; experiment: Resistance test using leaf discs on MS agar medium supplemented with saflufenacil; format: cell-based; conditions: for Score of adverse effects (browning or chlorosis) on leaf disc / Ratio of green area to leaf disc area (%): P-6-1; for Score of adverse effects (browning or chlorosis) on leaf disc: 5 plants; for Ratio of green area to leaf disc area (%): image analysis of FIG. 1, day 8
Procedure: P-6-1; DNA encoding the amino acid sequence of SEQ ID NO:1 and DNA encoding the amino acid sequence of SEQ ID NO:3;
(§1) Homozygote seeds of the recombinant tobacco lines 1609soy#25 and P023, which are described in EP1598423, and progeny seeds of the recombinant tobacco line P-6-1, which is also described in EP1598423, were aseptically sown on MS agar medium supplemented with 100 mg/L kanamycin and screened for plants with kanamaycin resistance. Leaf discs were prepared by cutting true leaves of the selected plants at 1 month after sowing, and placed on MS agar medium supplemented with 0.01 ppm, 0.03 ppm or 0.10 ppm saflufenacil. As negative control, seeds of wild-type SR-1 tobacco plants were aseptically sown on MS agar medium and, similarly, leaf discs were prepared by cutting true leaves of the plants at 1 month after sowing, and placed on MS agar medium supplemented with 0.01 ppm, 0.03 ppm or 0.10 ppm saflufenacil.
(§2) The leaf discs were prepared from 5 individual plants for each experimental plot. Scoring evaluation was conducted according to the degrees of adverse effects manifested as browning or chlorosis. The scoring criteria are as follows:
(§3) In the photograph shown in FIG. 1, the green-colored portions were color extracted using the image analysis software “Win ROOF ver.6.1.0” (MITANI Corporation) and their area was quantified. This was then divided by the area calculated by subtracting the area of the medium from the entire area of the image, thereby calculating the percentage of the area of the green-colored portions to the area of the leaf disc.

[2] = system: recombinant tobacco line P023 leaf discs; experiment: as above; format: cell-based; conditions: for Score of adverse effects (browning or chlorosis) on leaf disc / Ratio of green area to leaf disc area (%): P023; for Score of adverse effects (browning or chlorosis) on leaf disc / Observed adverse effect on leaf discs: day 8; for Score of adverse effects (browning or chlorosis) on leaf disc: 5 plants; for Ratio of green area to leaf disc area (%): image analysis of FIG. 1, day 8; for Observed adverse effect on leaf discs: recombinant tobacco line P023
Procedure: : DNA encoding the amino acid sequence of SEQ ID NO:3; Homozygote seeds of the recombinant tobacco lines 1609soy#25 and […], which are described in EP1598423, and progeny seeds of the recombinant tobacco line P-6-1, which is also described in EP1598423, were aseptically sown on MS agar medium supplemented with 100 mg/L kanamycin and screened for plants with […] resistance. Leaf discs were prepared by cutting true leaves of the selected plants at 1 month after sowing, and placed on MS agar medium supplemented with 0.01 ppm, 0.03 ppm or 0.10 ppm saflufenacil. As negative control, seeds of wild-type SR-1 tobacco plants were aseptically sown on MS agar medium and, similarly, leaf discs were prepared by cutting true leaves of the plants at 1 month after sowing, and placed on MS agar medium supplemented with 0.01 ppm, 0.03 ppm or 0.10 ppm saflufenacil. […] The leaf discs were prepared from 5 individual plants for each experimental plot. Scoring evaluation was conducted according to the degrees of adverse effects manifested as browning or chlorosis. The scoring criteria are as follows: In the photograph shown in FIG. 1, the green-colored portions were color extracted using the image analysis software “Win ROOF ver.6.1.0” (MITANI Corporation) and their area was quantified. This was then divided by the area calculated by subtracting the area of the medium from the entire area of the image, thereby calculating the percentage of the area of the green-colored portions to the area of the leaf disc.

[3] = system: wild-type SR-1 tobacco leaf discs; experiment: as above; format: cell-based; conditions: for Score of adverse effects (browning or chlorosis) on leaf disc / Ratio of green area to leaf disc area (%): Wild-type SR-1; for Score of adverse effects (browning or chlorosis) on leaf disc / Observed adverse effect on leaf discs: day 8; for Score of adverse effects (browning or chlorosis) on leaf disc: 5 plants; for Ratio of green area to leaf disc area (%): image analysis of FIG. 1, day 8; for Observed adverse effect on leaf discs: wild-type SR-1 tobacco leaves
Procedure: as §1, §2, §3

[4] = system: recombinant tobacco lines 1609soy#17 and #25, 1584soy#16, P023, and 35S-2; experiment: Resistance test using a spreader: tobacco; format: in vivo; conditions: spray application with automatic spreader; about two weeks later; homozygotes of 1609soy#17, #25, 1584soy#16, P023, 35S-2
Text: Homozygote seeds of the recombinant tobacco lines 1609soy#17 and #25, 1584soy#16, […], and 35S-2, which are described in EP1598423, are aseptically sown on MS agar medium. Subsequently, the germinated individuals are transferred to culture pots charged with Kureha soil (Kureha Chemicals) and acclimated to the outdoor environment in the phytotron. They are than grown for two weeks in the phytotron. As negative control, seeds of wild-type SR-1 tobacco plants are aseptically sown on MS agar medium and, similarly grown in the phytotron. The plants thus obtained are subjected to the saflufenacil application test. The spray solution is prepared by dissolving saflufenacil in an appropriate solvent, adding an adjuvant, and diluting it with water. Application of the spray solution to the plants are conducted using an wheeled automatic spreader (Mamba Architect Office), by homogenously spraying 20 mL of the solution onto the seedlings of the recombinant and wild-type tobacco plants placed within a 0.9 square-meter area to which the solution is applied. About two weeks later, the susceptibility of the tested recombinant tobacco plants to saflufenacil is compared with that of the wild-type SR-1 tobacco plants to saflufenacil. […] Scoring evaluation is conducted according to the degrees of adverse effects manifested as death of individual plants, or browning or chlorosis of the leaves or stems.

[5] = system: recombinant tobacco line 1609soy#25 leaf discs; experiment: Resistance test using leaf discs on MS agar medium supplemented with saflufenacil; format: cell-based; conditions: for Score of adverse effects (browning or chlorosis) on leaf disc / Ratio of green area to leaf disc area (%): 1609soy#25; for Score of adverse effects (browning or chlorosis) on leaf disc / Observed adverse effect on leaf discs: day 8; for Score of adverse effects (browning or chlorosis) on leaf disc: 5 plants; for Ratio of green area to leaf disc area (%): image analysis of FIG. 1, day 8; for Observed adverse effect on leaf discs: recombinant tobacco line 1609soy#25
Procedure: 1609soy#25: DNA encoding the amino acid sequence of SEQ ID NO:1;
as §1, §2, §3

[6] = system: recombinant soybean lines J16, J18, J26 and J28; experiment: Resistance test using a spreader: soybean; format: in vivo; conditions: spray application as in Example 2, about two weeks later
Procedure: Seeds of the T2 generation of the recombinant soybean lines J16, […], J26 and J28, which are described in US20060009361, are aseptically sown in the culture pots charged with Kureha soil and grown for about 3 weeks in the phytotron. As negative control, seeds of a wild-type soybean (cv. Jack) are similarly grown in the phytotron. The plants thus obtained are subjected to the saflufenacil application test. The application test is conducted according to the method described above in Example 2. About two weeks later, the susceptibility of the tested recombinant soybean plants to saflufenacil is compared with that of the wild-type soybean plants (cv. Jack) to saflufenacil.

CC(C)N(C)S(=O)(=O)NC(=O)c1cc(-n2c(=O)cc(C(F)(F)F)n(C)c2=O)c(F)cc1Cl [Saflufenacil, N′-{2-chloro-4-fluoro-5-[1,2,3,6-tetrahydro-3-methyl-2,6-dioxo-4-(trifluoromethyl)pyrimidine-1-yl]benzoyl}-N-isopropyl-N-methyl sulfamide]
Score of adverse effects (browning or chlorosis) on leaf disc ([1]; saflufenacil 0.01 ppm, day 8): 3.0 | Ratio of green area to leaf disc area (%) ([1]; saflufenacil 0.01 ppm): 87% | Score of adverse effects (browning or chlorosis) on leaf disc ([1]; saflufenacil 0.03 ppm, day 8): 2.6 | Ratio of green area to leaf disc area (%) ([1]; saflufenacil 0.03 ppm): 78% | Score of adverse effects (browning or chlorosis) on leaf disc ([1]; saflufenacil 0.10 ppm, day 8): 3.0 | Ratio of green area to leaf disc area (%) ([1]; saflufenacil 0.10 ppm): 83% | Observed adverse effect on leaf discs ([1]; progeny plants of recombinant tobacco line P-6-1, 0.10 ppm, day 8): no adverse effect | Score of adverse effects (browning or chlorosis) on leaf disc ([2]; saflufenacil 0.01 ppm): 3.0 | Ratio of green area to leaf disc area (%) ([2]; saflufenacil 0.01 ppm): 89% | Score of adverse effects (browning or chlorosis) on leaf disc ([2]; saflufenacil 0.03 ppm): 3.0 | Ratio of green area to leaf disc area (%) ([2]; saflufenacil 0.03 ppm): 86% | Score of adverse effects (browning or chlorosis) on leaf disc ([2]; saflufenacil 0.10 ppm): 2.0 | Ratio of green area to leaf disc area (%) ([2]; saflufenacil 0.10 ppm): 51% | Observed adverse effect on leaf discs ([2]; 0.10 ppm): partial chlorosis | Observed adverse effect on leaf discs ([2]; up to 0.03 ppm): no adverse effect | Score of adverse effects (browning or chlorosis) on leaf disc ([3]; saflufenacil 0.01 ppm): 2.0 | Ratio of green area to leaf disc area (%) ([3]; saflufenacil 0.01 ppm): 77% | Score of adverse effects (browning or chlorosis) on leaf disc ([3]; saflufenacil 0.03 ppm): 1.0 | Ratio of green area to leaf disc area (%) ([3]; saflufenacil 0.03 ppm): 20% | Score of adverse effects (browning or chlorosis) on leaf disc ([3]; saflufenacil 0.10 ppm): 0.2 | Ratio of green area to leaf disc area (%) ([3]; saflufenacil 0.10 ppm): 2% | Observed adverse effect on leaf discs ([3]; 0.01 ppm): partial browning | Observed adverse effect on leaf discs ([3]; 0.10 ppm): overall chlorosis | Susceptibility of recombinant tobacco plants to saflufenacil compared with wild-type SR-1 [4]: lower susceptibility | Score of adverse effects (browning or chlorosis) on leaf disc ([5]; saflufenacil 0.01 ppm): 3.0 | Ratio of green area to leaf disc area (%) ([5]; saflufenacil 0.01 ppm): 85% | Score of adverse effects (browning or chlorosis) on leaf disc ([5]; saflufenacil 0.03 ppm): 2.0 | Ratio of green area to leaf disc area (%) ([5]; saflufenacil 0.03 ppm): 80% | Score of adverse effects (browning or chlorosis) on leaf disc ([5]; saflufenacil 0.10 ppm): 1.0 | Ratio of green area to leaf disc area (%) ([5]; saflufenacil 0.10 ppm): 8% | Observed adverse effect on leaf discs ([5]; 0.01 ppm): no adverse effect | Observed adverse effect on leaf discs ([5]; 0.03 ppm): partial browning | Observed adverse effect on leaf discs ([5]; 0.10 ppm): overall browning | Susceptibility of recombinant soybean plants to saflufenacil compared with wild-type soybean (cv. Jack) [6]: lower susceptibility
